# In the supplement of paper PMC10307832:
# Compound: C1=CC2=C(C=C(C(=C2N=C1)O)N=NC3=CC4=C(C=C3)C=C(C=C4)S(=O)(=O)O)S(=O)(=O)O + N=C(N)NC(=N)NCCc1ccccc1 [Phenformin] (partner 250 µM)
# Experiment: relative viability (nuclei count vs DMSO), 5 days (fraction); higher = more cells survive
# Settings: first compound 0.08 µM
# How it was run: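 Medians of duplicate plates are given as relative viability. That measure is the nuclei count in treated wells divided by the count in vehicle wells. Counts were taken on 4× images of lung cancer cell lines in 1536-well plates, 5 days after pin-tool dosing the day after seeding with one drug alone or a fixed anchor-drug dose plus five library-drug doses (not always all listed) in √10 steps.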
row,Cell Line,relative viability
1,NCI-H460,0.609
2,NCI-H2347,0.356
3,SK-LU-1,0.597
4,NCI-H1395,0.442
5,201T,0.458
6,NCI-H1915,0.368
7,HCC-827,0.405
8,LXF-289,0.54
9,NCI-H23,0.869
10,NCI-H647,0.668
11,CAL-12T,0.536
12,NCI-H1651,0.386
13,EPLC-272H,0.284
14,NCI-H2228,0.441
15,NCI-H1792,0.261
16,NCI-H1355,0.484
17,NCI-H3122,0.369
18,NCI-H1437,0.257
19,NCI-H1755,0.597
20,NCI-H2023,0.393
21,HCC-15,0.491
22,NCI-H1793,0.416
23,PC-14,0.511
24,EKVX,0.237
25,LC-2-ad,0.575
26,NCI-H1944,0.237
27,NCI-H1975,0.424

# Same assay, conditions: first compound 0.253 µM
row,Cell Line,relative viability
1,NCI-H322M,0.744
2,LCLC-97TM1,0.491
3,NCI-H2009,0.455
4,A-427,0.293
5,NCI-H441,0.761
6,NCI-H661,0.291
7,NCI-H1734,0.381
8,NCI-H460,0.479
9,NCI-H2347,0.318
10,SK-LU-1,0.493
11,NCI-H1395,0.405
12,201T,0.426
13,NCI-H1915,0.381
14,HCC-827,0.335
15,LXF-289,0.511
16,NCI-H23,0.805
17,NCI-H647,0.486

row,Cell Line,relative viability
1,CAL-12T,0.522
2,NCI-H1651,0.331
3,EPLC-272H,0.319
4,NCI-H2228,0.341
5,NCI-H1792,0.343
6,NCI-H1355,0.432
7,NCI-H3122,0.379
8,NCI-H1437,0.242
9,NCI-H1755,0.59
10,NCI-H2023,0.394
11,HCC-15,0.481
12,NCI-H1793,0.416
13,PC-14,0.486
14,EKVX,0.225
15,LC-2-ad,0.553
16,NCI-H1944,0.199
17,NCI-H1975,0.434

# Same assay, conditions: first compound 0.8 µM
row,Cell Line,relative viability
1,NCI-H322M,0.727
2,LCLC-97TM1,0.434
3,NCI-H2009,0.504
4,A-427,0.283
5,NCI-H441,0.731
6,NCI-H661,0.269
7,NCI-H1734,0.356
8,NCI-H460,0.502
9,NCI-H2347,0.438
10,SK-LU-1,0.558
11,NCI-H1395,0.473
12,201T,0.458
13,NCI-H1915,0.352
14,HCC-827,0.397
15,LXF-289,0.509
16,NCI-H23,0.694
17,NCI-H647,0.449

row,Cell Line,relative viability
1,CAL-12T,0.502
2,NCI-H1651,0.385
3,EPLC-272H,0.292
4,NCI-H2228,0.296
5,NCI-H1792,0.254
6,NCI-H1355,0.44
7,NCI-H3122,0.378
8,NCI-H1437,0.251
9,NCI-H1755,0.605
10,NCI-H2023,0.432
11,HCC-15,0.457
12,NCI-H1793,0.346
13,PC-14,0.523
14,EKVX,0.235
15,LC-2-ad,0.548
16,NCI-H1944,0.19
17,NCI-H1975,0.413

# Same assay, conditions: first compound 2.53 µM
row,Cell Line,relative viability
1,NCI-H322M,0.705
2,LCLC-97TM1,0.45
3,NCI-H2009,0.498
4,A-427,0.288
5,NCI-H441,0.947
6,NCI-H661,0.279
7,NCI-H1734,0.326
8,NCI-H460,0.486
9,NCI-H2347,0.558
10,SK-LU-1,0.572
11,NCI-H1395,0.45
12,201T,0.433
13,NCI-H1915,0.357
14,HCC-827,0.416
15,LXF-289,0.485
16,NCI-H23,0.786
17,NCI-H647,0.534

row,Cell Line,relative viability
1,CAL-12T,0.693
2,NCI-H1651,0.329
3,EPLC-272H,0.28
4,NCI-H2228,0.303
5,NCI-H1355,0.481
6,NCI-H3122,0.418
7,NCI-H1437,0.303
8,NCI-H1755,0.63
9,NCI-H2023,0.376
10,HCC-15,0.422
11,NCI-H1793,0.442
12,PC-14,0.642
13,EKVX,0.232
14,LC-2-ad,0.588
15,NCI-H1944,0.199
16,NCI-H1975,0.386

# Same assay, conditions: first compound 8 µM
row,Cell Line,relative viability
1,NCI-H322M,0.809
2,LCLC-97TM1,0.384
3,NCI-H2009,0.441
4,A-427,0.313
5,NCI-H441,0.821
6,NCI-H661,0.312
7,NCI-H1734,0.35
8,NCI-H460,0.596
9,NCI-H2347,0.303
10,SK-LU-1,0.624
11,NCI-H1395,0.452
12,201T,0.306
13,NCI-H1915,0.37
14,HCC-827,0.45
15,LXF-289,0.507
16,NCI-H23,0.83
17,NCI-H647,0.525

row,Cell Line,relative viability
1,CAL-12T,0.358
2,NCI-H1651,0.337
3,EPLC-272H,0.323
4,NCI-H2228,0.423
5,NCI-H1792,0.295
6,NCI-H1355,0.434
7,NCI-H3122,0.323
8,NCI-H1437,0.317
9,NCI-H1755,0.651
10,NCI-H2023,0.379
11,HCC-15,0.444
12,NCI-H1793,0.379
13,PC-14,0.485
14,EKVX,0.139
15,LC-2-ad,0.651
16,NCI-H1944,0.193
17,NCI-H1975,0.39
